Calls of active or inactive are those of the source. The calls are words filed in the database; no cut-off is given here.

This note sets out measurements from ChEMBL document CHEMBL5335818, “A MassQL-Integrated Molecular Networking Approach for the Discovery and Substructure Annotation of Bioactive Cyclic Peptides” (J Nat Prod, 2024).

In assay [1] the target is Vasopressin V1a receptor (Homo sapiens) (UniProt P37288). In words: Antagonist activity at V1A receptor (unknown origin) transfected in HEK293 cells assessed as inhibition of AVP-induced cell activation at 1 to 31.6 uM incubated for 16 mins by label-free DMR assay. The assay is classed as functional, cell-based. To be noted: filed as antagonist, dose 1-31.6 µM.
Assay [2] addresses Muscarinic acetylcholine receptor M3 (Homo sapiens) (UniProt P20309). The experiment in a line: Antagonist activity at endogenous muscarinic M3 receptor in HEK293 cells assessed as inhibition of carbachol-induced cell activation at 1 to 31.6 uM incubated for 16 mins by label-free DMR assay. It counts as functional, cell-based. Particulars: dose 1-31.6 µM.
In assay [3] the target is Vasopressin V1a receptor (Homo sapiens) (UniProt P37288). The experiment in a line: Activation of endogenous V1A receptor signaling in HEK293 cells at 0.1 to 31.6 uM incubated for 16 mins by label-free DMR assay. The assay is classed as functional, cell-based. To be noted: dose 0.1-31.6 µM.
The target is the same in assay [4]. In words: Activation of V1A receptor (unknown origin) mediated signaling transfected in HEK293 cells at 0.1 to 31.6 uM incubated for 16 mins by label-free DMR assay. The assay is classed as functional, cell-based. To be noted: dose 0.1-31.6 µM.
For assay [5] the target is unchanged. The experiment in a line: Antagonist activity at V1A receptor (unknown origin) transfected in HEK293 cells assessed as inhibition of AVP-induced cell activation at 31.6 uM incubated for 16 mins by label-free DMR assay relative to control. It counts as functional, cell-based.
Assay [6] has the same target. The experiment in a line: Antagonist activity at V1A receptor (unknown origin) assessed as reduction in AVP-induced V1A receptor signaling. It counts as functional.

Vasopressin V1a receptor (Homo sapiens), sequence (P37288 whole entry, looked up): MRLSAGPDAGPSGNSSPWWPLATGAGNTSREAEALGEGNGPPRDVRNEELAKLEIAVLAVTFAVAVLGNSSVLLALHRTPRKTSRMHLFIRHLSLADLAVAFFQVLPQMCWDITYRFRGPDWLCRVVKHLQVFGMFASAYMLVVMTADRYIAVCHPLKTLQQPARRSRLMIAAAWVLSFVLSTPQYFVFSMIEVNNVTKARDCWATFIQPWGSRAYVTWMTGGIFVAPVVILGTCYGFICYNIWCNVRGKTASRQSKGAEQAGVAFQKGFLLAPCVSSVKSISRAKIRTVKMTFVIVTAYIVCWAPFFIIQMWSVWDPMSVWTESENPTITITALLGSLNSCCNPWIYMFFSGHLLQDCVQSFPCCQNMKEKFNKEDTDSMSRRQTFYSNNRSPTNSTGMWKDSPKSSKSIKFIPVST
Muscarinic acetylcholine receptor M3 (Homo sapiens), sequence (P20309 whole entry, looked up): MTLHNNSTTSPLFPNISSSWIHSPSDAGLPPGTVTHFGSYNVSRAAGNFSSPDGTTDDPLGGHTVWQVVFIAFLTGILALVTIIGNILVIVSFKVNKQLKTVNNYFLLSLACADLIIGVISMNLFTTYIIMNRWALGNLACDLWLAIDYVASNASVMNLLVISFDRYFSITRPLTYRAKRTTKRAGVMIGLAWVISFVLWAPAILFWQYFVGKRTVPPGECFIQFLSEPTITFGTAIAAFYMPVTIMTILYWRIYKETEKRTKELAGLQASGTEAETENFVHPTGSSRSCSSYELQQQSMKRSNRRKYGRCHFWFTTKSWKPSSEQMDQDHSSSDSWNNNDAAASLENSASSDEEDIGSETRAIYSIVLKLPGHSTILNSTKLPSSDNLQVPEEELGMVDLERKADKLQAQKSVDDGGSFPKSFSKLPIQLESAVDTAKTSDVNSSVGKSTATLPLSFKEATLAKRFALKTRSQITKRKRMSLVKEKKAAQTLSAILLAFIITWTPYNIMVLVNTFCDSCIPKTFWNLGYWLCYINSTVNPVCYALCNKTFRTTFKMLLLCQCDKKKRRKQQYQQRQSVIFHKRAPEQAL

The inhibition is the share of the control response that was lost under treatment. Turning to `CC(C)[C@@H]1NC(=O)[C@@H]2CCCN2C(=O)[C@H](Cc2ccoc2)NC(=O)[C@H](Cc2ccoc2)N(C)C1=O`, the outcome in assay [1] and in assay [6] (filed as antagonist) was Active. Further, the result in assay [2], in assay [3] and in assay [4] was inactive. Moreover, in assay [5], the inhibition stood at 22%.

`CC(C)C[C@@H]1NC(=O)[C@H](Cc2ccoc2)N(C)C(=O)[C@H](C(C)C)NC(=O)[C@@H]2CCCN2C1=O`: in assay [6], the result was inactive.

In the case of `CC(C)C[C@@H]1NC(=O)[C@H](Cc2ccoc2)N(C)C(=O)[C@H](C(C)C)NC(=O)[C@H](Cc2ccoc2)N(C)C1=O`, the result in assay [6] was inactive.
